≈ marks a conversion by molar mass, not a printed value.
Assays:
HepG2 = assay: Cytotoxicity against human HepG2 cells after 3 days; type: functional, cell-based; details: HepG2, 72 h
[1] = Cytotoxicity against human HepG2(2.2.15) cells after 3 days; type: functional, cell-based; details: HepG2 2.2.15, 72 h

CCCCCCCCCCCC[C@@H](O)[C@H]1CC[C@@H]([C@@H](O)CCCCCCC(O)CCCCC[C@@H](O)CC2=C[C@H](C)OC2=O)O1 (stereo partly drawn)
IC50 (HepG2): 0.298 µg/mL (≈ 0.477 µM)
IC50 [1]: 0.0162 µg/mL (≈ 0.0259 µM)

CCC[C@H](O)[C@@H](O)CCCCCCCC[C@@H](O)[C@H]1CC[C@H](CCCCCCCCCC[C@@H](O)CC2=C[C@H](C)OC2=O)O1 [ANNOCATALIN]
IC50 (HepG2): 5.7 µg/mL (≈ 9.55 µM)
IC50 [1]: 0.00348 µg/mL (≈ 0.00583 µM)

CCCCCCCCCCCC[C@@H](O)[C@H]1CC[C@@H]([C@@H](O)CCCCC(=O)CCCCCCCC2=C[C@H](C)OC2=O)O1 [COROSSOLONE]
IC50 (HepG2): 0.165 µg/mL (≈ 0.285 µM)
IC50 [1]: 0.0476 µg/mL (≈ 0.0822 µM)

COc1cccc2c1C(=O)c1c(O)c3c(c(O)c1C2=O)C[C@@](O)(C(=O)CO)C[C@@H]3O[C@H]1C[C@H](N)[C@H](O)[C@H](C)O1 [DOXORUBICIN]
IC50 (HepG2): 0.241 µg/mL (≈ 0.443 µM)
IC50 [1]: 0.45 µg/mL (≈ 0.828 µM)

CCCCCC(O)C(O)CCCCCC[C@@H](O)[C@H]1CC[C@H](CCCCCCCCCC[C@@H](O)CC2=C[C@H](C)OC2=O)O1 (stereo partly drawn) [MURICIN A]
IC50 (HepG2): 5.04 µg/mL (≈ 8.44 µM)
IC50 [1]: 0.00513 µg/mL (≈ 0.00859 µM)

CCCCCC(O)C(O)CCCCCC[C@H](O)[C@@H]1CC[C@H](CCCCCCCCCC[C@H](O)CC2=C[C@H](C)OC2=O)O1 (stereo partly drawn) [MURICIN B]
IC50 (HepG2): 1.78 µg/mL (≈ 2.98 µM)
IC50 [1]: 0.00429 µg/mL (≈ 0.00719 µM)

CCCCCCCC(O)C(O)CC[C@H](O)[C@@H]1CC[C@H](CCCCCCCCCCCC[C@@H](O)CC2=C[C@H](C)OC2=O)O1 (stereo partly drawn) [MURICIN C]
IC50 (HepG2): 0.499 µg/mL (≈ 0.836 µM)
IC50 [1]: 0.00387 µg/mL (≈ 0.00648 µM)

CCCCCCC[C@H](O)[C@@H](O)CCCC[C@@H](O)[C@H]1CC[C@H](CCCCCCCCCCCCC2=C[C@H](C)OC2=O)O1 [MURICIN H]
IC50 (HepG2): 0.0951 µg/mL (≈ 0.164 µM)
IC50 [1]: 0.0118 µg/mL (≈ 0.0203 µM)

CCCCC/C=C\CC[C@H](O)[C@@H](O)CCCC[C@@H](O)[C@H]1CC[C@H](CCCCCCCCCCCCC2=C[C@H](C)OC2=O)O1 [MURICIN I]
IC50 (HepG2): 0.0509 µg/mL (≈ 0.0839 µM)
IC50 [1]: 0.222 µg/mL (≈ 0.366 µM)
